# Measurements taken from patent US20170074857A1, “MEDICATION ADHERENCE MONITORING DEVICE” (UNIVERSITY OF FLORIDA RESEARCH FOUNDATION, INC., priority 2014, published 2017).
# Experiment: Example 4a: noncompartmental pharmacokinetics of exhaled 2-butanone and 2-pentanone by mGC;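 as to TThresh: time until breath level first exceeds the mGC detection limit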
# Format: in vivo, human
# Description: Test Materials. […] 2-butanol was purchased from Penta Manufacturing Company (Fairfield, N.J.). 2-pentanol and L-carvone were purchased from Sigma-Aldrich (St. Louis, Mo.). […] 2-pentanone was also used as a taggant, but we hypothesized that its inherent volatility would allow exhalation without need for metabolism. L-carvone tastes like spearmint and was used as a flavor mask. All capsules were filled on the day of the experiment.
# Subject Enrollment and Protocol. This protocol (20100140) was approved by the Western Institutional Review Board (Olympia, Wash.). Healthy subjects (n=5) aged >18 years of age and of either sex were recruited. Informed, written consent was obtained from all enrolled subjects. The study consisted of a single experimental limb with six replicates per subject. Therefore, for five subjects with six replicated experiments, a total of 30 studies were performed. Subjects were free to eat ad lib prior to participation in the study. At commencement of the experiments, subjects provided a baseline breath sample (designated time 0 min) into the mGC for analysis as described subsequently. Then, subjects orally consumed the previously detailed capsule with 177 mL (6 ounces) of water. Following ingestion, we observed the breath concentration-time relationships of 2-butanone and 2-pentanone by collecting single-breath samples at times 5, 10, 15, 20, 30, 45, and 60 min. After 60 min, the experiment was concluded. After at least one day's respite, subjects returned for replicate experiments on five additional occasions.
# 2-Butanone and 2-Pentanone Measurement in Human Breath by mGC. Breath specimens were analyzed “real-time” to measure the concentrations of 2-butanone and 2-pentanone using the mGC (Xhale, Inc. Gainesville, Fla.) as previously described. In brief, a mouthpiece (FST®, Intoximeters, Inc., St. Louis, Mo.) was attached to the inlet of the mGC. A 15 mL side-stream sample was aspirated during a single exhalation over 5 s through this inlet port to a room temperature concentrator trap containing 4 mg of Tenax TA (Sigma-Aldrich). The trap temperature was then increased to 130° C. and the volatile components transferred to a 5 m by 0.53 mm internal diameter, metal clad, BAC-1 capillary column (Restek Corp, Bellefonte, Pa.) operated at 55° C. The effluent from the column then flowed to the metal oxide detectors. Separation of the markers from other volatile organic compounds present in the sample (i.e., acetone and isoprene) occurred in approximately 2 min. Data were tabulated and graphically presented over time to determine the concentrations of 2-butanone and 2-pentanone in a given breath specimen. Data are reported in parts-per-billion (ppb) based on molar fractions to account for differing ambient atmospheric pressures and temperature.
# Pharmacokinetic Analysis. Analyte breath concentrations reported as ppb were converted to ng/mL by multiplying each concentration by the molecular weight of the respective molecule to allow proper functioning of conventional PK software for noncompartmental analysis (WinNonlin 5.2, Pharsight Corporation, St. Louis, Mo.). Estimates were generated for the following PK parameters (abbreviation, unit): first-order elimination rate constant (Lambda Z, min-1), half-life of elimination (Half-life, min), maximal drug concentration (CMAX, μg/mL), time at maximal drug concentration (TMAX, min), area under concentration versus time curve from zero to the last time point (AUC0-LAST, min*μg/mL), area under concentration versus time curve from zero to infinity (AUC0-∞, min*μg/mL), percentage of area under concentration versus time curve from zero to infinity, which is extrapolated from AUC0-t (% AUC Extrap) and the mean residence time (MRT, min). The area under concentration versus time curve (AUC) was calculated using the linear trapezoidal rule. All values are reported separately for each subject as mean±standard deviation following conversion from ng/mL to ppb. […]
compound,measurement,setting,value
"CCC(C)=O [Formulation 2-butanone, 2-butanone]",% AUC Extrap,30 observations,17.9%
same,AUC0-8,30 observations,51190 min · ppb
same,AUC0-LAST,30 observations,41820 min · ppb
same,CMAX,30 observations,1376 ppb
same,Half-life,30 observations,216 min
same,LAMBDA_Z,30 observations,0.036 min⁻¹
same,MRT0-last,30 observations,25.7 min
same,TMAX,30 observations,17.8 min
same,% AUC Extrap,REPLICATE 1,41.3%
same,AUC0-LAST,REPLICATE 1,53278 min · ppb
same,AUC0-∞,REPLICATE 1,64618 min · ppb
same,CMAX,REPLICATE 1,1793 ppb
same,Half-life,REPLICATE 1,21.1 min
same,LAMBDA_Z,REPLICATE 1,0.036 min⁻¹
same,MRT0-last,REPLICATE 1,24.4 min
same,TMAX,REPLICATE 1,15.0 min
same,TThresh,"REPLICATE 1, same 5 subjects",5.0 min
same,% AUC Extrap,REPLICATE 2,47.3%
same,AUC0-LAST,REPLICATE 2,44693 min · ppb
same,AUC0-∞,REPLICATE 2,58070 min · ppb
same,CMAX,REPLICATE 2,1361 ppb
same,Half-life,REPLICATE 2,24.1 min
same,LAMBDA_Z,REPLICATE 2,0.033 min⁻¹
same,MRT0-last,REPLICATE 2,28.3 min
same,TMAX,REPLICATE 2,21.0 min
same,TThresh,REPLICATE 2,7.0 min
same,% AUC Extrap,REPLICATE 3,31.3%
same,AUC0-LAST,REPLICATE 3,36508 min · ppb
same,AUC0-∞,REPLICATE 3,42226 min · ppb
same,CMAX,REPLICATE 3,1175 ppb
same,Half-life,REPLICATE 3,16.4 min
same,LAMBDA_Z,REPLICATE 3,0.048 min⁻¹
same,MRT0-last,REPLICATE 3,24.8 min
same,TMAX,REPLICATE 3,17.0 min
same,TThresh,REPLICATE 3,6.0 min
same,% AUC Extrap,REPLICATE 4,37.3%
same,AUC0-LAST,REPLICATE 4,44467 min · ppb
same,AUC0-∞,REPLICATE 4,52141 min · ppb
same,CMAX,REPLICATE 4,1449 ppb
same,Half-life,REPLICATE 4,21.2 min
same,LAMBDA_Z,REPLICATE 4,0.038 min⁻¹
same,MRT0-last,REPLICATE 4,23.9 min
same,TMAX,REPLICATE 4,19.0 min
same,TThresh,REPLICATE 4,6.0 min
same,% AUC Extrap,REPLICATE 5,54.6%
same,AUC0-LAST,REPLICATE 5,37792 min · ppb
same,AUC0-∞,REPLICATE 5,491783 min · ppb
same,CMAX,REPLICATE 5,1227 ppb
same,Half-life,REPLICATE 5,27.7 min
same,LAMBDA_Z,REPLICATE 5,0.026 min⁻¹
same,MRT0-last,REPLICATE 5,26.6 min
same,TMAX,REPLICATE 5,15.0 min
same,TThresh,REPLICATE 5,7.0 min
same,% AUC Extrap,REPLICATE 6,39.2%
same,AUC0-LAST,REPLICATE 6,34184 min · ppb
same,AUC0-∞,REPLICATE 6,40905 min · ppb
same,CMAX,REPLICATE 6,1251 ppb
same,Half-life,REPLICATE 6,18.9 min
same,LAMBDA_Z,REPLICATE 6,0.037 min⁻¹
same,MRT0-last,REPLICATE 6,26.5 min
same,TMAX,REPLICATE 6,20.0 min
same,TThresh,REPLICATE 6,6.0 min
same,% AUC Extrap,SUBJECT 1,22.6%
same,AUC0-LAST,SUBJECT 1,45298 min · ppb
same,AUC0-∞,SUBJECT 1,59106 min · ppb
same,CMAX,SUBJECT 1,1297 ppb
same,Half-life,SUBJECT 1,22.6 min
same,LAMBDA_Z,SUBJECT 1,0.033 min⁻¹
same,MRT0-last,SUBJECT 1,29.3 min
same,TMAX,SUBJECT 1,21.7 min
same,TThresh,"SUBJECT 1, six replicates",6.7 min
same,% AUC Extrap,SUBJECT 2,19.2%
same,AUC0-LAST,SUBJECT 2,66466 min · ppb
same,AUC0-∞,SUBJECT 2,82628 min · ppb
same,CMAX,SUBJECT 2,1926 ppb
same,Half-life,SUBJECT 2,20.6 min
same,LAMBDA_Z,SUBJECT 2,0.034 min⁻¹
same,MRT0-last,SUBJECT 2,27.7 min
same,TMAX,SUBJECT 2,20.8 min
same,TThresh,SUBJECT 2,5.0 min
same,% AUC Extrap,SUBJECT 3,23.2%
same,AUC0-LAST,SUBJECT 3,19608 min · ppb
same,AUC0-∞,SUBJECT 3,25623 min · ppb
same,CMAX,SUBJECT 3,1021 ppb
same,Half-life,SUBJECT 3,30.7 min
same,LAMBDA_Z,SUBJECT 3,0.024 min⁻¹
same,MRT0-last,SUBJECT 3,22.7 min
same,TMAX,SUBJECT 3,11.7 min
same,TThresh,SUBJECT 3,5.8 min
same,% AUC Extrap,SUBJECT 4,12.6%
same,AUC0-LAST,SUBJECT 4,68147 min · ppb
same,AUC0-∞,SUBJECT 4,77593 min · ppb
same,CMAX,SUBJECT 4,2238 ppb
same,Half-life,SUBJECT 4,16.4 min
same,LAMBDA_Z,SUBJECT 4,0.043 min⁻¹
same,MRT0-last,SUBJECT 4,26.2 min
same,TMAX,SUBJECT 4,18.3 min
same,TThresh,SUBJECT 4,5.8 min
same,% AUC Extrap,SUBJECT 5,12.0%
same,AUC0-LAST,SUBJECT 5,9581 min · ppb
same,AUC0-∞,SUBJECT 5,10999 min · ppb
same,CMAX,SUBJECT 5,398 ppb
same,Half-life,SUBJECT 5,17.5 min
same,LAMBDA_Z,SUBJECT 5,0.046 min⁻¹
same,MRT0-last,SUBJECT 5,22.9 min
same,TMAX,SUBJECT 5,16.7 min
same,TThresh,SUBJECT 5,7.5 min
same,observed CMAX range,across subjects,"398-2,238 ppb"
same,half life in breath,after oral 2-butanol (40 and 60 mg) to humans,11 to 22 min
same,TThresh,"mean of 30 observations (5 subjects, 6 replicates), oral 2-butanol 60 mg + 2-pentanone 60 mg",6.2 min
